Measured values from patent US20100173983A1, “METHOD FOR INDUCING AUTOPHAGY” (priority 2007, published 2010).

How the values were obtained:
ovarian cancer cells = assay: Cell viability in presence of pan caspase inhibitor ZVAD-FMK; type: cell-based, Human; conditions: ZVAD-FMK 0.5 μg/ml
Protocol: FIG. 5. Comparative cell viability plots of dehydroequol (A) and Cpd 1 (B) treated cells in the presence and absence of the pan caspase inhibitor ZVAD-FMK (0.5 μg/ml).
(§1) Cell viability was evaluated using the CellTiter 96 Aqueous One Solution Cell Proliferation Assay (Promega, Madison, Wis.) according to the manufacturer's instructions. The values from the treated cells were compared with the values generated from the untreated cells and reported as percent viability. Each experiment was performed in triplicate.

caspase 9 = assay: Caspase-Glo 9 assay in R182 cells; type: cell-based, Human; conditions: R182 ovarian cancer explants; dose response and duration of exposure (5 μg/ml, 0-25 hr)
Protocol: FIG. 3. Comparative induction of caspase 9 in R182 ovarian cancer explants by Cpd 1 and dehydroequol using either dose response (A) or duration of exposure (B). Caspase 9 activity was assessed using the Caspase-Glo 9 assay.
(§2) For caspase activity assays, 10 μg of protein in 50 μL total volume was mixed with 50 μL of equilibrated Caspase-Glo 3/7, 8, or 9 reagents (Promega). After incubating at room temperature for 1 hour, luminescence was measured using TD 20/20 Luminometer (Turner Designs, Sunnyvale, Calif.). Blank values were subtracted and fold-increase in activity was calculated based on activity measured from untreated cells. Each sample was measured in triplicate.

caspase 3 [1] = assay: Caspase 3 activity in xenograft tumour sections; type: in vivo, SCID mice; conditions: tumour-bearing mice; not shown
caspase 3 [2] = assay: Caspase-Glo 3/7 assay in R182 cells; type: cell-based, Human; conditions: R182 ovarian cancer explants; dose response and duration of exposure (5 μg/ml, 0-25 hr)
Protocol: FIG. 2. Comparative induction of caspase 3 in R182 ovarian cancer explants by Cpd 1 and dehydroequol using either dose response (A) or duration of exposure (B). Caspase 3 activity was assessed using the Caspase-Glo 3/7 assays.
as §2

caspase 8 = assay: Caspase-Glo 8 assay in R182 cells; type: cell-based, Human; conditions: R182 ovarian cancer explants; dose response and duration of exposure (5 μg/ml, 0-25 hr)
Protocol: FIG. 4. Comparative induction of caspase 8 in R182 ovarian cancer explants by Cpd 1 and dehydroequol using either dose response (A) or duration of exposure (B). Caspase 8 activity was assessed using the Caspase-Glo 8 assay.
as §2

[3] = tested on: CP70 (cell line), R179, R182, R585 (primary ovarian cancer explants); assay: Cell viability, CellTiter 96 Aqueous One Solution Cell Proliferation Assay, ovarian cancer cells; type: cell-based, Human; conditions: concentrations up to 10 μg/ml, 24 hr exposure
Protocol: FIG. 1. Comparative cytotoxicity of dehydroequol and Compound I as described herein (Cpd 1) against normal and ovarian cancer cells: CP70 (cell line), R179, R182, R585 (primary ovarian cancer explants) and OSE (normal ovarian surface epithelial cells). […] Both compounds were tested at concentrations up to 10 μg/ml and exposed to cells for 24 hr.
Human EOC cell lines A2780, CP70, and OSE were propagated in RPMI plus 10% fetal bovine serum (FBS) (Gemini Bio-Products, Woodland, Calif.) at 37° C. in a 5% CO2 atmosphere. Primary EOC cells (R179, R182, R585) were isolated from malignant ovarian ascites and cultured as previously described (Kamsteeg et al., 2003). Dehydroequol and Compound 1 (Cpd 1) were obtained from Novogen (Australia). All other reagents were purchased from Sigma Chemical (St. Louis, Mo.). The pan caspase inhibitor Z-VAD-FMK was obtained from R&D Systems (Minneapolis, Minn.).
as §1

In the case of `Oc1ccc(C2=Cc3ccc(O)cc3OC2)cc1` [Dehydroequol, reference compound], the “cell death in the presence of pan caspase inhibitor ZVAD-FMK” value (ovarian cancer cells) is reported as “apoptosis was inhibited”, the “caspase 9 activity” value (caspase 9) is reported as “activation of caspase 3 is time (5 μg/ml) and dose dependent” and the “caspase 3 activity in tumour sections” value (caspase 3 [1]) is reported as “observed only in tumour sections taken from mice dosed with dehydroequol”. The “caspase 3 activity” value (caspase 3 [2]) was “activation of caspase 3 is time (5 μg/ml) and dose dependent”, the “caspase 8 activity” value (caspase 8) was “activation of caspase 8 is time (5 μg/ml) and dose dependent” and the “cell viability of ovarian cancer cells” value [3] was “does not exhibit this pan activity”.
